Measurements from patent US6329392A, “Substituted piperidines useful for the treatment of allergic diseases” (Aventis Pharmaceuticals, Inc., priority 1998, dated 2001).
pIC50: −log10 of the molar value. Where two headings read alike, the source gives them in different places.

Tests used:
[1] = target: T1, H1 receptor (Cavia porcellus, UniProt P31389); assay: Histamine (H1) antagonism in guinea pig ileum; format: cell-based
T1 construct: A piece of ileum, about 20 cm in length, is removed and cut into 2 cm pieces; from tissue; host or cells: ileum of male Hartley guinea pigs
T1 sequence (P31389 whole entry): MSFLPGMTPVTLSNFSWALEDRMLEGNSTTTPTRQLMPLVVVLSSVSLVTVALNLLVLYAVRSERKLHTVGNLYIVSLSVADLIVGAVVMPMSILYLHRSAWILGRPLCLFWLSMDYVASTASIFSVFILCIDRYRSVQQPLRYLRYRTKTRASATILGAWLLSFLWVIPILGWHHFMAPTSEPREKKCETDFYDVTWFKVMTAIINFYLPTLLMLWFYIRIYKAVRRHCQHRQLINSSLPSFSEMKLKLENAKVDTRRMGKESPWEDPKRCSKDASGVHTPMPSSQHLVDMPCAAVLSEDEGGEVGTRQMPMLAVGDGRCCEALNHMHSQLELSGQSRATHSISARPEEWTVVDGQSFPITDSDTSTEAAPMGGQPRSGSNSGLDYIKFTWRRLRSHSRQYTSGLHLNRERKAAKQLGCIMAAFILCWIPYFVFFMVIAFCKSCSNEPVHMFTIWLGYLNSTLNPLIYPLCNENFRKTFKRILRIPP
Description: Male Hartley guinea pigs, weighing 200-450 grams, are sacrificed by CO2 asphyxiation. A piece of ileum, about 20 cm in length, is removed and cut into 2 cm pieces. Each ileum piece is placed in an organ bath at 37° C. containing Tyrode's solution and is constantly aerated with 95% O2 /5%CO2. Tyrode's solution has the composition: NaCl 136.9 mM, KCl […], CaCl2 1.8 mM, NaH2 PO4 0.42 mM, NaHCO3 11.9 mM, and dextrose 5.55 mM. Contractions are measured with an isometric transducer (Grass FTO3C), and are recorded on a polygraph recorder and/or a computer. The ileum strips are loaded with 1.0 grams of tension and allowed to equilibrate for a minimum of 30 minutes before starting the experiments.
The potency of the antagonism is determined by the magnitude of the shift and is expressed as a pA2 value which is the negative logarithm of the molar concentration of antagonist which produces a two-fold shift of the dose response curve to the right. The pA2 value is calculated by using Schild analysis. O. Arunlakshana and H. O. Schild, Br. J. Pharmacol Chemother. 14, 48-58 (1958).
Table 1 presents pA2 values by the method of Example 93 which indicate potency of H1 receptor antagonism and IC50 values by the method of Example 95 which indicates NK1 receptor binding affinity for representative compounds of the present invention.

[2] = target: T2, NK1 receptor (Cavia porcellus, UniProt P30547); assay: Antagonism of iodinated tachykinin (substance P) binding to NK1 receptors in guinea pig lungs; settings: read-out: NK1 Receptor Binding Affinity, IC50
T2 construct: as evaluated in guinea pig lungs (Keystone Biologicals, Cleveland, Ohio); tissue Keystone Biologicals, Cleveland, Ohio; host or cells: guinea pig lung membranes
T2 sequence (P30547 whole entry): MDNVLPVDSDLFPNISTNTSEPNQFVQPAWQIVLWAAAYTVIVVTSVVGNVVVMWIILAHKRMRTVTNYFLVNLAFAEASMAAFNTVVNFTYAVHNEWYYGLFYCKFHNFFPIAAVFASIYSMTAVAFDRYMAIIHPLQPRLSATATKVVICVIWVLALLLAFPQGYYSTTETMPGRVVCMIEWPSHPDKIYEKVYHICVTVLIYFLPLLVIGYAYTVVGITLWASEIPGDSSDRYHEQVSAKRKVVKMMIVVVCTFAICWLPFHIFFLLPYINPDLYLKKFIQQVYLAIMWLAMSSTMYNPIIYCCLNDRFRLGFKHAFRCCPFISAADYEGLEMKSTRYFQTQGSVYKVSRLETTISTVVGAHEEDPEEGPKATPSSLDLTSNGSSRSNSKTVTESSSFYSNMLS
Description: Antagonism of iodinated tachykinin binding to NK1 receptors by putative antagonists
One skilled in the art can measure the NK1 receptor affinity of proposed tachykinin antagonists as evaluated in guinea pig lungs (Keystone Biologicals, Cleveland, Ohio). Tissues or cells are homogenized with a Polytron in 15 volumes of 50 mM Tris-HCl buffer (pH 7.4, […]) and centrifuged. The pellet is resuspended in Tris-HCl buffer and centrifuged; the pellet is washed twice by resuspension. The final pellet is resuspended at a concentration of 40 mg/ml incubation buffer and remains at room temperature for at least 15 min prior to use. […] Incubations are performed at room temperature for 90 min; binding is terminated by addition of 50 mM Tris-HCl buffer (pH 7.4, […]) and filtration under vacuum through GF/B filters presoaked with 0.1% polyethyleneimine. Filter bound radioactivity is quantitated in a gamma counter. […] IC50 values (concentration required to inhibit 50% of receptor binding) are generated for each of the test compounds by nonlinear regression using an iterative curve fitting program (GraphPAD Inplot, San Diego, Calif.).

[3] = read-out: H1 Receptor Antagonism, pA2, in vitro (converted)
[4] = guinea pig lungs, 0.1 nM 125I-Bolton Hunter Lys-3 labeled substance P, room temperature 90 min, pH 7.4

SMILES | Kb [1, 3] [nM] | pIC50 [2] | Kb [1] [nM] | pIC50 [2, 4]
COc1cc(C(=O)N2CCC(CCN3CCC(C(=O)c4nc5ccccc5n4Cc4ccc(F)cc4)CC3)(c3ccccc3)C2)cc(OC)c1OC (centres unmarked) [Example 11, 1-(3,4,5-Trimethoxy-benzoyl)-3-[2-[4-[1-(4-fluoro-benzyl)-1 H-benzoimidazole-2-carbonyl]-piperidin-1-yl]-ethyl]-3-phenyl-pyrrolidine] | 33.9 |  |  | 
COc1cc(CN2CCC(CCN3CCC(O)(c4nc5ccccc5n4Cc4ccc(F)cc4)CC3)(Cc3ccccc3)C2=O)cc(OC)c1OC (centres unmarked) [Example 53, 1-(3,4,5-Trimethoxy-benzyl)-3-[2-[4-[1-(4-fluoro-benzyl)-1H-benzoimidazol-2-yl]-4-hydroxy-piperidin-1-yl]-ethyl]-3-(phenylmethyl)-2-oxo-pyrrolidine] | 204 | 6.72 |  | 
COc1ccc(CC2(CCN3CCC(O)(c4nc5ccccc5n4Cc4ccc(F)cc4)CC3)CCN(Cc3cc(OC)c(OC)c(OC)c3)C2=O)cc1OC (centres unmarked) [Example 55, 1-(3,4,5-Trimethoxy-benzyl)-3-[2-[4-[1-(4-fluoro-benzyl)-1H-benzoimidazol-2-yl]-4-hydroxy-piperidin-1-yl]-ethyl]-3-(3,4-dimethoxy-phenylmethyl)-2-oxo-pyrrolidine] | 912 | 6.41 |  | 
CCOCCn1c(C(=O)C2CCN(CCC3(c4ccccc4)CCN(C(=O)c4cc(OC)c(OC)c(OC)c4)C3)CC2)nc2ccccc21 (centres unmarked) [Example 40, 1-(3,4,5-Trimethoxy-benzoyl)-3-[2-[4-[1-(2-ethoxy-ethyl)-1 H-benzoimidazole-2-carbonyl]-piperidin-1-yl]-ethyl]-3-phenyl-pyrrolidine] | 41.7 | 7.62 |  | 
COc1cc(C(=O)N2CCC(CCN3CCC(C(=O)c4nc5ccccc5n4Cc4ccc(C(=O)O)cc4)CC3)(c3ccccc3)C2)cc(OC)c1OC (centres unmarked) [Example 39, 1-(3,4,5-Trimethoxy-benzoyl)-3-[2-[4-[1-(4-carboxy-benzyl)-1 H-benzoimidazole-2-carbonyl]-piperidin-1-yl]-ethyl]-3-phenyl-pyrrolidine] | 891 | 7.54 |  | 
COc1cc(C(=O)N2CCC(CCN3CCC(C(=O)c4nc5ccccc5n4CCOCc4ccco4)CC3)(c3ccccc3)C2)cc(OC)c1OC (centres unmarked) [Example 45, 1-(3,4,5-Trimethoxy-benzoyl)-3-[2-[4-[1-(2-fur-2-ylmethoxy-ethyl)-1 H-benzoimidazole-2-carbonyl]-piperidin-1-yl]-ethyl]-3-phenyl-pyrrolidine] | 35.5 | 8.05 |  | 
COc1cc(C(=O)N2CCC(CCN3CCC(C(=O)c4nc5ccccc5n4Cc4ccc(F)cc4)CC3)(c3ccc(Cl)c(Cl)c3)C2)cc(OC)c1OC (centres unmarked) [Example 6, 1-(3,4,5-Trimethoxy-benzoyl)-3-[2-[4-[1-(4-fluoro-benzyl)-1 H-benzoimidazole-2-carbonyl]-piperidin-1-yl]-ethyl]-3-(3,4-dichloro-phenyl)-pyrrolidine] | 141 | 7.07 |  | 
COc1cc(C(=O)N2CCC(CCN3CCC(C(=O)c4nc5ccccc5n4Cc4ccco4)CC3)(c3ccccc3)C2)cc(OC)c1OC (centres unmarked) [Example 44, 1-(3,4,5-Trimethoxy-benzoyl)-3-[2-[4-[1-(fur-2-ylmethyl)-1 H-benzoimidazole-2-carbonyl]-piperidin-1-yl]-ethyl]-3-phenyl-pyrrolidine] | 63.1 | 7.89 |  | 
COc1cc(C(=O)N2CCC(CCN3CCC(C(=O)c4nc5ccccc5n4Cc4ccc(F)cc4)CC3)(c3ccc(C(F)(F)F)cc3)C2)cc(OC)c1OC (centres unmarked) [Example 20, 1-(3,4,5-Trimethoxy-benzoyl)-3-[2-[4-[1-(4-fluoro-benzyl)-1 H-benzoimidazole-2-carbonyl]-piperidin-1-yl]-ethyl]-3-(4-trifluoromethyl-phenyl)-pyrrolidine] | 129 | 6.96 |  | 
COc1cc(C(=O)N2CCC(CCN3CCC(O)(c4nc5ccccc5n4Cc4ccc(F)cc4)CC3)(c3ccc(Cl)c(Cl)c3)C2)cc(OC)c1OC (centres unmarked) [Example 7, 1-(3,4,5-Trimethoxy-benzoyl)-3-[2-[4-[1-(4-fluoro-benzyl)-1 H-benzoimidazol-2-yl]-4-hydroxy-piperidin-1-yl]-ethyl]-3-(3,4-dichloro-phenyl)-pyrrolidine] |  | 7.19 | 38.9 | 
COc1ccc(C2(CCN3CCC(c4nc5ccccc5s4)CC3)CCN(C(=O)c3ccccc3)C2)cc1OC (centres unmarked) [Example 4, 1-Benzoyl-3-[2-[4-(benzothiazol-2-yl)-piperidin-1-yl]-ethyl]-3-(3,4-dimethoxy-phenyl)-pyrrolidine] | 158 | 5.59 |  | 
COc1ccc(C2(CCN3CCC(C(=O)c4nc5ccccc5n4Cc4ccc(C(=O)O)cc4)CC3)CCN(C(=O)c3cc(OC)c(OC)c(OC)c3)C2)cc1OC (centres unmarked) [Example 43] | 6760 | 7.32 |  | 
COc1ccc(C2(CCN3CCC(C(O)(c4ccccc4)c4ccccc4)CC3)CCN(C(=O)c3cc(OC)c(OC)c(OC)c3)C2)cc1OC (centres unmarked) [Example 9, 1-(3,4,5-Trimethoxy-benzoyl)-3-[2-[4-(hydroxy-diphenyl-methyl)-piperidin-1-yl]-ethyl]-3-(3,4-dimethoxy-phenyl)-pyrrolidine] | 724 | 6.91 |  | 
COc1ccc(C2(CCN3CCC(C(=O)c4nc5ccccc5n4Cc4ccc(F)cc4)CC3)CCN(C(=O)c3ccccc3)C2)cc1OC (centres unmarked) [Example 2, 1-Benzoyl-3-[2-[4-[1-(4-fluoro-benzyl)-1 H-benzoimidazole-2-carbonyl]-piperidin-1-yl]-ethyl]-3-(3,4-dimethoxy-phenyl)-pyrrolidine] |  |  | 26.9 | 
COc1ccc(C2(CCN3CCC(C(=O)c4nc5ccccc5n4Cc4ccc(F)cc4)CC3)CCN(C(=O)c3cc(OC)c(OC)c(OC)c3)C2)cc1OC (centres unmarked) [Example 1, 1-(3,4,5-Trimethoxy-benzoyl)-3-[2-[4-[1-(4-fluoro-benzyl)-1H-benzoimidazole-2-carbonyl]-piperidin-1-yl]-ethyl]-3-(3,4-dimethoxy-phenyl)-pyrrolidine] | 31.6 |  |  | 7.51
COc1cc(CN2CCC(CCN3CCC(O)(c4nc5ccccc5n4Cc4ccc(F)cc4)CC3)(Cc3ccc(F)cc3)C2=O)cc(OC)c1OC (centres unmarked) [Example 57, 1-(3,4,5-Trimethoxy-benzyl)-3-[2-[4-[1-(4-fluoro-benzyl)-1H-benzoimidazol-2-yl]-4-hydroxy-piperidin-1-yl]-ethyl]-3-(4-fluoro-phenylmethyl)-2-oxo-pyrrolidine] | 155 | 6.94 |  | 
COc1cc(C(=O)N2CCC(CCN3CCC(C(=O)c4nc5ccccc5n4Cc4ccc(F)cc4)CC3)(c3ccc4c(c3)OCO4)C2)cc(OC)c1OC (centres unmarked) [Example 10, 1-(3,4,5-Trimethoxy-benzoyl)-3-[2-[4-[1-(4-fluoro-benzyl)-1 H-benzoimidazole-2-carbonyl]-piperidin-1-yl]-ethyl]-3-(benzo[1,3]dioxol-5-yl)-pyrrolidine] | 60.3 |  |  | 6.84
COc1cc(C(=O)N2CCC(CCN3CCC(C(=O)c4nc5ccccc5n4Cc4ccc(F)cc4)CC3)(c3ccc(F)cc3F)C2)cc(OC)c1OC (centres unmarked) [Example 25, 1-(3,4,5-Trimethoxy-benzoyl)-3-[2-[4-[1-(4-fluoro-benzyl)-1 H-benzoimidazole-2-carbonyl]-piperidin-1-yl]-ethyl]-3-(2,4-difluoro-phenyl)-pyrrolidine] | 141 | 6.49 |  | 
COc1ccc(C2(CCN3CCC(O)(c4nc5ccccc5n4Cc4ccc(F)cc4)CC3)CCN(C(=O)c3cc(OC)c(OC)c(OC)c3)C2)cc1OC (centres unmarked) [Example 5, 1-(3,4,5-Trimethoxy-benzoyl)-3-[2-[4-[1-(4-fluoro-benzyl)-1 H-benzoimidazol-2-yl]-4-hydroxy-piperidin-1-yl]-ethyl]-3-(3,4-dimethoxy-phenyl)-pyrrolidine] | 269 | 7.60 |  | 
COc1ccc(C2(CCN3CCC(O)(c4nc5ccccc5n4Cc4ccc(F)cc4)CC3)CCN(C(=O)c3ccccc3)C2)cc1OC (centres unmarked) [Example 3, 1-Benzoyl-3-[2-[4-[1-(4-fluoro-benzyl)-1 H-benzoimidazol-2-yl]-4-hydroxy-piperidin-1-yl]-ethyl]-3-(3,4-dimethoxy-phenyl)-pyrrolidine] |  | 6.39 | 37.2 | 
